Data reported in the NIST ThermoML archive (doi:10.1016/j.fluid.2015.07.030).

Experiment: refractive index (other wavelength) (dimensionless); xn = mol fraction of the nth substance listed
Conditions: 95.99 kPa, Liquid, Standard Abbe refractometry

OCCOCCOCCO [triethylene glycol] + O
refractive index
Conditions | Wavelength=404.7 nm | Wavelength=435.8 nm | Wavelength=486.1 nm | Wavelength=546.1 nm | Wavelength=587.6 nm | Wavelength=589.3 nm | Wavelength=632.8 nm | Wavelength=644 nm | Wavelength=706.5 nm
293.15 K, x2 = 0 | 1.46928 | 1.46569 | 1.46151 | 1.45803 | 1.45619 | 1.45612 | 1.45455 | 1.4542 | 1.45248
293.15 K, x2 = 0.1056 | 1.46776 | 1.46418 | 1.46003 | 1.45656 | 1.45474 | 1.45467 | 1.45311 | 1.45275 | 1.45102
293.15 K, x2 = 0.2069 | 1.46585 | 1.46229 | 1.45817 | 1.45473 | 1.45293 | 1.45286 | 1.45131 | 1.45095 | 1.44922
293.15 K, x2 = 0.3104 | 1.46244 | 1.45892 | 1.45478 | 1.45137 | 1.44957 | 1.4495 | 1.44796 | 1.4476 | 1.44588
293.15 K, x2 = 0.4844 | 1.45861 | 1.45514 | 1.45102 | 1.44764 | 1.44586 | 1.4458 | 1.44426 | 1.44391 | 1.44221
293.15 K, x2 = 0.5016 | 1.45756 | 1.45412 | 1.45 | 1.44663 | 1.44485 | 1.44479 | 1.44326 | 1.44291 | 1.44121
293.15 K, x2 = 0.5952 | 1.45069 | 1.44731 | 1.44328 | 1.43997 | 1.4382 | 1.43814 | 1.43663 | 1.43669 | 1.4346
293.15 K, x2 = 0.6016 | 1.45072 | 1.44734 | 1.44332 | 1.44002 | 1.43827 | 1.43821 | 1.4367 | 1.43635 | 1.43464
293.15 K, x2 = 0.6788 | 1.44395 | 1.4406 | 1.4367 | 1.43344 | 1.43171 | 1.43165 | 1.4301 | 1.42981 | 1.42813
293.15 K, x2 = 0.7835 | 1.4342 | 1.43091 | 1.42716 | 1.42397 | 1.4223 | 1.42224 | 1.42078 | 1.42043 | 1.41874
293.15 K, x2 = 0.8184 | 1.42884 | 1.42558 | 1.42185 | 1.41872 | 1.41706 | 1.417 | 1.41555 | 1.4152 | 1.41353
293.15 K, x2 = 0.8473 | 1.42267 | 1.41949 | 1.41582 | 1.41276 | 1.41114 | 1.41108 | 1.40964 | 1.4093 | 1.40762
293.15 K, x2 = 0.8719 | 1.41529 | 1.41214 | 1.40852 | 1.40547 | 1.40386 | 1.4038 | 1.40238 | 1.40204 | 1.40038
293.15 K, x2 = 0.8926 | 1.40703 | 1.40391 | 1.40033 | 1.39734 | 1.39576 | 1.3957 | 1.3943 | 1.39396 | 1.39232
293.15 K, x2 = 0.9106 | 1.40148 | 1.39844 | 1.39495 | 1.392 | 1.39044 | 1.39038 | 1.38899 | 1.38865 | 1.387
293.15 K, x2 = 0.9254 | 1.39081 | 1.38783 | 1.38446 | 1.38156 | 1.38004 | 1.37998 | 1.3786 | 1.37827 | 1.37665
293.15 K, x2 = 0.9303 | 1.39206 | 1.38905 | 1.38562 | 1.38273 | 1.3812 | 1.38114 | 1.37976 | 1.37942 | 1.37778
293.15 K, x2 = 0.9391 | 1.38808 | 1.38514 | 1.38176 | 1.37891 | 1.37736 | 1.37731 | 1.37592 | 1.37559 | 1.37396
293.15 K, x2 = 0.951 | 1.38101 | 1.37811 | 1.37479 | 1.37198 | 1.37045 | 1.37039 | 1.36903 | 1.36871 | 1.36871
293.15 K, x2 = 0.9599 | 1.37477 | 1.37194 | 1.36866 | 1.36589 | 1.36436 | 1.36431 | 1.36296 | 1.36264 | 1.36106
293.15 K, x2 = 0.9708 | 1.36673 | 1.36396 | 1.36077 | 1.35803 | 1.35657 | 1.35652 | 1.3552 | 1.35488 | 1.35328
293.15 K, x2 = 0.979 | 1.36151 | 1.35879 | 1.35566 | 1.35294 | 1.35147 | 1.35142 | 1.35011 | 1.3498 | 1.34824
293.15 K, x2 = 0.9867 | 1.35527 | 1.35259 | 1.34949 | 1.34676 | 1.34532 | 1.34526 | 1.34398 | 1.34367 | 1.3421
293.15 K, x2 = 0.9936 | 1.34883 | 1.34624 | 1.34314 | 1.34052 | 1.33907 | 1.33902 | 1.33774 | 1.33744 | 1.33593
298.15 K, x2 = 0 | 1.46749 | 1.4639 | 1.45975 | – | – | – | – | – | –
298.15 K, x2 = 0.1056 | 1.46604 | 1.46248 | 1.45834 | – | – | – | – | – | –
298.15 K, x2 = 0.2069 | 1.46428 | 1.46074 | 1.45661 | – | – | – | – | – | –
298.15 K, x2 = 0.3104 | 1.46096 | 1.45745 | 1.45333 | – | – | – | – | – | –
298.15 K, x2 = 0.4844 | 1.45699 | 1.45354 | 1.44943 | – | – | – | – | – | –
298.15 K, x2 = 0.5016 | 1.45596 | 1.45252 | – | – | – | – | – | – | –
298.15 K, x2 = 0.5952 | 1.44911 | 1.44572 | – | – | – | – | – | – | –
298.15 K, x2 = 0.6016 | 1.44913 | 1.44575 | – | – | – | – | – | – | –
298.15 K, x2 = 0.6788 | 1.44244 | 1.43909 | – | – | – | – | – | – | –
298.15 K, x2 = 0.7835 | 1.43274 | 1.42946 | – | – | – | – | – | – | –
298.15 K, x2 = 0.8184 | 1.42742 | 1.42417 | – | – | – | – | – | – | –
298.15 K, x2 = 0.8473 | 1.42101 | 1.41783 | – | – | – | – | – | – | –
298.15 K, x2 = 0.8719 | 1.41326 | 1.41082 | – | – | – | – | – | – | –
298.15 K, x2 = 0.8926 | 1.40601 | 1.40293 | – | – | – | – | – | – | –
298.15 K, x2 = 0.9106 | 1.40032 | 1.39727 | – | – | – | – | – | – | –
298.15 K, x2 = 0.9254 | 1.38959 | 1.38664 | – | – | – | – | – | – | –
298.15 K, x2 = 0.9303 | 1.39111 | 1.38813 | – | – | – | – | – | – | –
298.15 K, x2 = 0.9391 | 1.38696 | 1.38402 | – | – | – | – | – | – | –
298.15 K, x2 = 0.951 | 1.38004 | 1.37716 | – | – | – | – | – | – | –
298.15 K, x2 = 0.9599 | 1.374 | 1.37117 | – | – | – | – | – | – | –
298.15 K, x2 = 0.9708 | 1.36592 | 1.36317 | – | – | – | – | – | – | –
298.15 K, x2 = 0.979 | 1.36072 | 1.35801 | – | – | – | – | – | – | –
298.15 K, x2 = 0.9867 | 1.35466 | 1.35198 | – | – | – | – | – | – | –
298.15 K, x2 = 0.9936 | 1.34824 | 1.34565 | – | – | – | – | – | – | –
